# Tests used:
# isolated rat aorta = assay: In vitro induction of tolerance: vasorelaxation of aortic rings pre-exposed to the NO-releasing compound; type: cell-based; settings: vasorelaxation in rings pre-treated with 0.44 mM of the compound versus control rings; in words
# Experimental: Aortic rings were prepared as described hereinabove, and were exposed to 0.44 mM GTN (vehicle was water:ethanol:propyleneglycol at proportional ratio of 1:1:1) for 1 hour before CCRC construction, to thereby induce tolerance to nitroglycerine. At the end of the tolerance induction period, rings were thrice washed with the path buffer (Krebs-bicrbonate) every 15 minutes for the following hour and then CCRC for vasorelaxation on GTN-induced tolerance rings were constructed for GTN (pretreated versus untreated rings, FIG. 15), in order to verify the ability to induce and measure GTN tolerance induction in vitro
# Attempted induction of tolerance to the NO-donating compounds of the present invention was performed under the same conditions as for GTN. Thus, in an exemplary experiment, rings were exposed to 0.44 mM solution of Pet-3 in the attempt to induce tolerance for Pet-3. CCRC were then measured for the vasorelaxing effect of Pet-3 on a group of rings which were pre-exposed to Pet-3 as to induce tolerance to Pet-3, and for an untreated control group. The above protocol was repeated with Pet-2, Pet-7, Pet-8, Pet-12, Pet-24, Pet-43, Pet-149 and Pet-152.
# c-GMP [1] = assay: Cyclic-GMP measurement in aortic rat tissue (radioimmunoassay); type: cell-based; settings: rat thoracic aorta, summary of Table 5; in words
# Experimental: GTN (10^−6 M) was added to the chamber and, 1 minute after exposure to the drug, rings (usually 3-5) were taken, wrapped with aluminum foil and immediately frozen in liquid nitrogen for storage. Control sample group was treated with the vehicle solution only. At the time of analysis, rings were thawed, blotted over a dry gauzed and weighted. A known weight of tissue was homogenized in 2 ml ice-cold modified Hank's balanced salt solution containing (in gram/liter) NaCl 8; KCl 0.4; glucose 1; KH2PO4 0.06; Na2HPO4 0.047; Phenol red 0.017 and further containing 25 mM EDTA (disodium salt). The homogenate was centrifuged at 4000 g (force units) for 10 minutes at 2-4° C. and the supernatant was thereafter transferred into fresh pre-cooled test tube containing 1 ml of acetonitrile. The tubes were vortex mixed for a few seconds and subsequently centrifuged at 4000 g for 5 minutes at 2-4° C., to remove the precipitated protein. Each supernatant was transferred into a clean test tube and evaporated to dryness under a stream of nitrogen at 55° C. The dry residue was reconstituted with 10 volumes of Tris-EDTA buffer pH 7.5 (0.05 M Tris containing 4 mM EDTA). Aliquots of 100 μl of the reconstituted solution in duplicate were used for c-GMP measurements using Amersham RIA kit, as is described in Haj-Yehia & Benet [Pharmacology, 1995, 273, 1, pp. 94-100]. Standard curves were plotted with six concentrations (0, 0.5, 1, 2, 4 and 8 pmoles of c-GMP per tube).
# The NO-tolerance effect of GTN and NO-donor compounds according to the present invention was measured by following the production of c-GMP in slices of thoracic aorta of rats. Thus, the production of c-GMP was measured as described in the methods section above for the reference NO-donor compound GTN, and for the NO-donors of the present invention Pet-2, Pet-3, Pet-7, Pet-8, Pet-10, Pet-12, Pet-24, Pet-59, Pet-147, Pet-149, Pet-152, Pet-154 and Pet-155.
# [2] = tested on: anesthetized hypertensive Sprague-Dawley male rats; assay: Hypotensive effects: mean arterial pressure after iv bolus; type: in vivo, rat; settings: rats pre-treated with phenylephrine, iv bolus doses; in words
# Experimental: Mean arterial pressure (MAP) was monitored and determined during bolus infusion of Pet-2, Pet-3, Pet-7, Pet-8, Pet-12 and Pet-13. Briefly, polyethylene catheters (PE50) were inserted into the carotid artery and into the jugular vein of anesthetized hypertensive Sprague-Dawley male rats (200-300 grams). A blood pressure recorder was placed within the carotid artery. Phenylephrine (0.1 mg) was then injected and the mean arterial blood pressure (MABP) was monitored continuously until a stable baseline was reached. The hypotensive effects of intravenous (iv) bolus doses (0.1 mg of each tested compound) administered intravenously at the jugular vein in minimal volume of vehicle (0.2 ml per dose) were evaluated. Five minutes were allowed between each dose, during which the maximal decrease in MAP was recorded and a dose-response graph comparing the hypotensive effect of the compounds was constructed.
# c-GMP [3] = assay: Induction of in vivo nitrate tolerance (cGMP in aorta isolated after 16 hour infusion); set-up: species or system rat; settings: in words
# Experimental: For c-GMP levels and tolerance development, the rat's thoracic aorta was isolated after exposure to the tested compound in vivo, and measured as described above in the in vitro assays.
# Male Sprague Dawley rats (220 to 250 grams) were housed under constant temperature and humidity conditions. Light was maintained at a 12/12 light dark cycle. Except for 12 hours before the experiment, when food fasting was initiated, all rats had free access to standard rat pellet diet and tap water. The animals were anesthetized by intraperitoneal injection of ketamine and xylazine combination (50 and 10 milligram per kilogram, respectively). […] The catheters were filled with normal saline solution containing 1000 IU/ml of heparin and plugged with a metal pin. Catheters were externalized to the back of the neck region and secured by a polyester felt disk.
# After implantation, the rats were individually housed until they regained their preoperative weight and appeared healthy (3 to 4 days post-operation). At this time point (day 0), an osmotic mini-pump (Alza Corp., Palo Alto, Calif.) delivering constant volume (10 μl/hour) of vehicle or drug was connected to one of the intravenous catheters.
# For inducing tolerance to the tested NO-donor according to the present invention, the animals received 200 μg/hour of the tested compound for 16 hours (short-term-induced tolerance). A similar number of animals were processed by the same surgical procedure and received the vehicle alone (10 μl/hour of a solution consisting of 30% ethanol and 30% propylene glycol in sterile distilled water for injection).
# At the end of the infusion periods used for the development of tolerance (16 hour), the rats were anesthetized as described above, the two catheters were externalized and the delivering catheters were disconnected from the mini-pump. The abdomen was opened by midline incision and the thoracic aorta were isolated, washed and cleaned from the surrounding tissues. Strips of the treated aortas were pooled in chambers containing Krebs-Hanseliet buffer (10 ml), and exposed to 1 μM of the tested NO-donor (final concentration) for 120 seconds. The tissues were quickly collected and frozen in liquid nitrogen for cGMP measurement, described hereinabove.
compound,measurement,setting,value
"O=[N+]([O-])OCC(CO[N+](=O)[O-])O[N+](=O)[O-] [GTN, glyceryl trinitrate, reference compound]",tolerance induction in vitro,isolated rat aorta,tolerance induced
same,c-GMP level following a repeated treatment,c-GMP [1],significantly reduced
same,hypotensive effect on MAP following successive administrations,[2],attenuation
same,level of cGMP following a repeated treatment in vivo,"c-GMP [3]; aorta of rats infused 200 μg/hour for 16 hours, then exposed to 1 μM compound for 120 seconds",decreased
same,tolerance induction in vivo,c-GMP [3]; cGMP accumulation in isolated aorta of rats pre-treated in vivo with the compound,tolerance inducing effect

# Reference: patent publication US7968575B2, “Nitric oxide donors and uses thereof” (priority 2004, dated 2011)
